Measured values from patent publication US10457641B2, “Certain chemical entities, compositions, and methods” (NEUPHARMA, INC., priority 2012, dated 2019).
pIC50: −log10 of the molar value.

Legend:
[1] = test system: Colo-205 (human colon carcinoma cell); experiment: Inhibition of cancer cell growth, MTS assay, Colo-205; type: cell-based; conditions: 72 h treatment
Protocol: (§1) A375 (human melanoma cell, BRAF V600E Mutant), A549 (adenocarcinomic human alveolar basal epithelial cell) and Colo-205 (human colon carcinoma cell) were purchased from ATCC (American Type Culture Collection, Manassas, Va.). All cell lines were maintained in RPMI 1640 (Hyclone) or DMEM (Hyclone) supplemented with 10% fetal bovine serum (FBS, Hyclone), glutamine (2 mM, Hyclone), and antibiotics (penicillin 100 U/mL and streptomycin 50 μg/mL) at 37° C. in a humidified atmosphere of 5% CO2 in air.
(§2) To test IC50 of inhibition of individual compounds against each cell line, A375, A549 and Colo-205 cells were first plated in 96-well plates at densities of 2000-4000 cells/well. Cells were then incubated to allow cells to adhere and grow for 24 h. Cells were then treated with a series of concentrations of compounds for 72 h. The highest concentration of compounds was 20 μM. Cells were then removed from the incubator and medium was removed by inverting and tapping the plates. 100 μL of MTT (0.5 mg/ml) or 10 μL or MTS was added to each well followed by an incubated at 37° C. for 4 h. Then MTT was removed and 200 μL of DMSO was added to each well, followed by reading the ODs at 570 nm after a 5 second shaking cycle in a 96-well spectrophotometer. For MTS method, MTS was not removed, and the incubated solutions were directly put in a 96-well spectrophotometer for the reading of the ODs at 492 nm.
(§3) IC50 was calculated by plotting the concentration of compound vs the percentage of inhibition in treated wells using GraphPad Prism 5. […] The scale utilized in Table 3 is as follows: +++ less than 1 μM; ++ between 1 μM and 5 μM; and + greater than 5 μM.

BRAF = molecular target: T1, BRAF (Homo sapiens, UniProt P15056); experiment: Z'-LYTE kinase inhibition assay, BRAF; type: biochemical; conditions: 1 μM compound; Z'-LYTE method
T1 construct: purchased Invitrogen
Protocol: (§4) Inhibitory activities of compounds against BRAF or BRAF V600E were measured by Invitrogen using Z′-LYTE® Method as briefly described in the following.
(§5) 4× Test compounds are dissolved in 1% DMSO. […] ATP solutions are diluted to a 4×ATP working concentration in Kinase Buffer (50 mM HEPES pH 7.5, 0.01% BRIJ-35, 10 mM MgCl2, 1 mM EGTA).
(§6) Reaction starts by 30-second shaking of mixture consisting of 2.5 μL 4× test compound, 2.5 μL 2× kinase reaction mixture and 2.5 μL 4×ATP Solution on Bar-coded Corning, low volume NBS, black 384-well plate (Corning Cat. #3676). Then the mixture is incubated for 60-minute at room temperature for the kinase reaction, followed by addition of 5 μL of a 1:1024 dilution of development reagent A and 30-second plate shake. The mixture is then incubated for another 60-minute at room temperature for development reaction. Finally fluorescence is read by plate reader.

[2] = test system: A549 (adenocarcinomic human alveolar basal epithelial cell); experiment: Inhibition of cancer cell growth, MTT assay, A549; type: cell-based; conditions: 72 h treatment
Protocol: as §1, §2, §3

[3] = test system: A375 (human melanoma cell, BRAF V600E Mutant); experiment: Inhibition of cancer cell growth, MTT assay, A375; type: cell-based; conditions: A-375, 72 h treatment
Protocol: as §1, §2, §3

BRAF V600E = molecular target: T2, BRAF V600E (Homo sapiens, UniProt P15056, V600E); experiment: Z'-LYTE kinase inhibition assay, BRAF V600E; type: biochemical; conditions: 1 μM compound; Z'-LYTE method
T2 construct: purchased Invitrogen
Protocol: as §4, §5, §6

T2 sequence (P15056 whole entry V600E): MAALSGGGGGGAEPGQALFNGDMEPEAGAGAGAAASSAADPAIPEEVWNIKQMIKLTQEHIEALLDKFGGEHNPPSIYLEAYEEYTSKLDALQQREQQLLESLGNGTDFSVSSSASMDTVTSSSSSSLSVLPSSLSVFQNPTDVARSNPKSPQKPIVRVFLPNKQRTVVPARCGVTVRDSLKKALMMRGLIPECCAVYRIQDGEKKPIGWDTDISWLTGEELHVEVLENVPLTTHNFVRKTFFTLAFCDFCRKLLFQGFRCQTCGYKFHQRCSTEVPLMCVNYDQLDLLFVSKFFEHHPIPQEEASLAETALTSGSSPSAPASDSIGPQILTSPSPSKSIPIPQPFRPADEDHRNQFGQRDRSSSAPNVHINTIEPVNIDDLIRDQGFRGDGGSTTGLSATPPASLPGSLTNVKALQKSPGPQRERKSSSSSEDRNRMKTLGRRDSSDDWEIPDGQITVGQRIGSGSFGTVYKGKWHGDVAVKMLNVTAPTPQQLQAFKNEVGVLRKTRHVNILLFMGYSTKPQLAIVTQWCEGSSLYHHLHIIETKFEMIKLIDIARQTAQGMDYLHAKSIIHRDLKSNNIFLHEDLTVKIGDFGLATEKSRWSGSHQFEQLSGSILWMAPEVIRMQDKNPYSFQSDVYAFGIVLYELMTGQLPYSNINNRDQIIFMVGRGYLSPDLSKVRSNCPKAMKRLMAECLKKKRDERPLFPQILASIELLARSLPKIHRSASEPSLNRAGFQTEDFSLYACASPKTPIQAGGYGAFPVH
T1 sequence (P15056 whole entry): as the sequence (P15056 whole entry V600E) above, with E600V counted along it

Structure (SMILES)	pIC50 [1]	inhibition at 1 µM (BRAF) [%]	pIC50 [2]	pIC50 [3]	inhibition at 1 µM (BRAF V600E) [%]
CCCS(=O)(=O)Nc1cc(F)c(F)c(C(=O)c2ccc3ncccc3c2)c1F [Compound C001, N-(2,4,5-trifluoro-3-(quinoline-6-carbonyl)phenyl)propane-1-sulfonamide]	5.30 to 6.00	70 to 89	< 5.30	> 6.00	> 89
O=C(Nc1cccc(F)c1)Nc1cc(F)c(F)c(C(=O)c2ccc3ncccc3c2)c1F [Compound C002, 1-(3-fluorophenyl)-3-(2,4,5-trifluoro-3-(quinoline-6-carbonyl)phenyl)urea]	< 5.30		5.30 to 6.00	< 5.30	< 70
O=C(Nc1ccc(F)cc1)Nc1cc(F)c(F)c(C(=O)c2ccc3ncccc3c2)c1F [Compound C003, 1-(4-fluorophenyl)-3-(2,4,5-trifluoro-3-(quinoline-6-carbonyl)phenyl)urea]	< 5.30	< 70	< 5.30	< 5.30	< 70
O=C(Nc1ccc(F)c(F)c1)Nc1cc(F)c(F)c(C(=O)c2ccc3ncccc3c2)c1F [Compound C004, 1-(3,4-difluorophenyl)-3-(2,4,5-trifluoro-3-(quinoline-6-carbonyl)phenyl)urea]	< 5.30		5.30 to 6.00	< 5.30	< 70
O=C(Nc1cc(F)cc(F)c1)Nc1cc(F)c(F)c(C(=O)c2ccc3ncccc3c2)c1F [Compound C005, 1-(3,5-difluorophenyl)-3-(2,4,5-trifluoro-3-(quinoline-6-carbonyl)phenyl)urea]	< 5.30		5.30 to 6.00	5.30 to 6.00	< 70
O=C(Nc1cc(F)c(F)c(C(=O)c2ccc3ncccc3c2)c1F)c1cccc(F)c1 [Compound C006, 3-fluoro-N-(2,4,5-trifluoro-3-(quinoline-6-carbonyl)phenyl)benzamide]	< 5.30	< 70	< 5.30	< 5.30	70 to 89
O=C(Nc1cc(F)c(F)c(C(=O)c2ccc3ncccc3c2)c1F)c1ccc(F)cc1 [Compound C007, 4-fluoro-N-(2,4,5-trifluoro-3-(quinoline-6-carbonyl)phenyl)benzamide]	< 5.30		< 5.30	< 5.30	< 70
O=C(Nc1cc(F)c(F)c(C(=O)c2ccc3ncccc3c2)c1F)c1cc(F)cc(F)c1 [Compound C008, 3,5-difluoro-N-(2,4,5-trifluoro-3-(quinoline-6-carbonyl)phenyl)benzamide]	< 5.30	< 70	< 5.30	< 5.30	< 70
O=C(Nc1cc(F)c(F)c(C(=O)c2ccc3ncccc3c2)c1F)c1ccc(F)c(F)c1 [Compound C009, 3,4-difluoro-N-(2,4,5-trifluoro-3-(quinoline-6-carbonyl)phenyl)benzamide]	< 5.30		< 5.30	< 5.30	< 70
CCCS(=O)(=O)Nc1cc(F)c(F)c(C(=O)c2ccc3ncncc3c2)c1F [Compound C010, N-(2,4,5-trifluoro-3-(quinazoline-6-carbonyl)phenyl)propane-1-sulfonamide]	> 6.00	> 89	< 5.30	> 6.00	> 89
